From patent US10206906B2, “Synergistic combination of a phenolic-rich maple syrup extract and an antibiotic” (priority 2015, dated 2019)
Converted amounts (≈) assume the structure as drawn.

Experiments:
[1] = tested on: P. aeruginosa PAO1 biofilm; experiment: Biofilm formation, microtitre plate crystal violet assay; format: cell-based, Pseudomonas aeruginosa; conditions: p<0.05
Protocol: (§1) Biofilm formation is quantified using the standard microtitre plate model. […] Aliquots (100 μL) of these cultures are transferred into the wells of polystyrene, flat bottom, non-treated 96 well plates (Falcon™, Corning™), in triplicate. For all assays, biofilms are allowed to develop for 16 h at 37° C. under static conditions, after which OD600 values are recorded, the spent broth is decanted from the wells, and the wells are gently rinsed three times with DI water. The washed biofilm is stained with crystal violet (CV). For CV stain assay, 100 μL of 0.1% (w/v) CV is loaded in each well and the plates are incubated for 15 min under static conditions at room temperature. The wells are subsequently rinsed with DI water to remove excess dye and the CV adsorbed to the biomass in each well is solubilized in 100 μL of absolute ethanol for 10 min. The solubilized CV is then quantified (as OD570) using a microplate reader. Control experiments are performed with cell-free broth to adjust for the background signal.

[2] = tested on: P. aeruginosa PA14 biofilm; experiment: as above; format: cell-based, Pseudomonas aeruginosa; conditions: p<0.05
Protocol: as §1

[3] = tested on: P. mirabilis HI4320 biofilm; experiment: as above; format: cell-based, Proteus mirabilis; conditions: p<0.05
Protocol: as §1

[4] = tested on: cell membrane of P. aeruginosa PAO1; experiment: BacLight membrane integrity assay; format: cell-based, Pseudomonas aeruginosa; conditions: PRMSE, catechol at 4 × MIC for 10 min; CTAB 10 μM; untreated = 100
Protocol: (§2) The BacLight kit (L-13152, Invitrogen™, Life Technologies Inc., Canada) is used to assess cell membrane damage. Overnight bacterial cultures are diluted 1:40 in fresh MHBII broth to a final volume of 5 mL, grown to an OD600 of 0.5-0.6, washed with filter-sterilized 10 mM phosphate buffered saline (PBS, pH 7.0) and resuspended in 1/10 of the original volume. […] Cultures are incubated at room temperature (21±2° C.) on a tube rocker for 10 min. At the end of the incubation period, an aliquot is taken for CFU counts and the remaining suspension is washed with 10 mM PBS and resuspended to an OD600) of 0.3. An aliquot (100 μL) of each bacterial suspension is removed and added to a 96-well, black, clear-bottom plate (Corning™, Fisher Scientific, ON, Canada) along with an equal volume of the BacLight™ reagent (2× stock solution, L13152, Invitrogen™, Life Technologies Inc., Canada) and the plates are incubated for 10 min at room temperature in the dark. At the end of the incubation period, fluorescence intensity is recorded for both kit components, SYTO-9 (ex/em 485/530 nm) and propidium iodide (ex/em 485/645 nm), using the microplate reader. Fluorescence readings from samples are normalized to the values obtained from untreated control to determine the ratio of membrane compromised cells to cells with intact membrane. Cetyltrimethylammonium bromide (CTAB, Sigma-Aldrich Canada), a cationic detergent that is known to cause membrane damage, is used at concentration of 10 μM as a positive control for membrane disruption.

[5] = tested on: cell membrane of P. aeruginosa PA14; experiment: BacLight membrane integrity assay; format: cell-based, Pseudomonas aeruginosa; conditions: PRMSE, catechol at 4 × MIC for 10 min; CTAB 10 μM; untreated = 100
Protocol: as §2

[6] = tested on: E. coli CFT073; experiment: Bacterial colony forming ability (CFU counts after exposure); format: cell-based, Escherichia coli; conditions: log decrease vs untreated control, 4 × MIC, 10 min, CTAB 10 μM
Protocol: as §2

[7] = tested on: P. aeruginosa PAO1; experiment: Determination of minimum inhibitory concentration (MIC); format: cell-based; conditions: Pseudomonas aeruginosa, PAO1, 18 h
Protocol: (§3) A range of concentration of antibiotics, ciprofloxacin (0.0003-0.25 μg mL^−1) and carbenicillin (0.5-512 μg mL^−1), are chosen due to their known potency against all four bacterial strains. Dilutions are prepared in flat bottom, 96 well microtitre plates (Falcon™, Corning™, Fisher Scientific, ON, Canada). Each well of a microtitre plate is then inoculated with the desired bacterial strain (grown in MHB-II and diluted to […]) and the plate is incubated at 37° C. for 18 h under static conditions. Bacterial growth is assessed by (i) monitoring the optical density of the cell suspension in each well at 600 nm (OD600 nm), and (ii) the resazurin microtitre plate assay. In the resazurin microtitre plate assay, each well of a microtitre plate is supplemented with 20 μM resazurin, incubated in the dark for 20 min at room temperature, followed by fluorescence measurements at ex/em 570/590 nm using a TECAN Infinite M200 Pro microplate reader (Tecan Group Ltd., Switzerland). The lowest concentration of a compound able to prevent increase in OD600 nm and resazurin fluorescence intensity is recorded as the MIC for that compound.

[8] = tested on: P. aeruginosa PA14; experiment: as above; format: cell-based; conditions: Pseudomonas aeruginosa, PA14, 18 h
Protocol: as §3

[9] = tested on: P. mirabilis HI4320; experiment: as above; format: cell-based; conditions: Proteus mirabilis, HI4320, 18 h
Protocol: as §3

[10] = tested on: E. coli CFT073; experiment: as above; format: cell-based; conditions: Escherichia coli, CFT073, 18 h
Protocol: as §3

[11] = tested on: outer membrane of P. aeruginosa PAO1; experiment: Outer membrane permeabilization, NPN uptake assay; format: cell-based, Pseudomonas aeruginosa; conditions: sub-MIC; concentration giving maximal increase in NPN uptake
Protocol: (§4) The cells are harvested, washed with 5 mM HEPES buffer (pH 7.2), and resuspended in the same volume (10 mL) of 5 mM HEPES buffer (pH 7.2) containing 1 mM N-ethylmaleimide (NEM, Sigma-Aldrich Canada). Aliquots (1 mL) are mixed with NPN to a final concentration of 10 μM (in cell suspension) and fluorescence is measured using the microplate reader (ex/em 350/420 nm).

[12] = tested on: outer membrane of P. aeruginosa PA14; experiment: Outer membrane permeabilization, NPN uptake assay; format: cell-based, Pseudomonas aeruginosa; conditions: sub-MIC; concentration giving maximal increase in NPN uptake
Protocol: as §4

[13] = substance alone at sub-lethal concentrations, 16 h
[14] = with ciprofloxacin, both at sub-lethal concentrations

What does the source list for `Oc1ccccc1O` [catechol, 1,2-dihydroxybenzene]?
inhibition of monoculture biofilm formation (OD570/OD600) [1, 13]: significant inhibitory effects; inhibitory effect on biofilm formation, with ciprofloxacin [1, 14]: significant inhibitory effects; inhibition of monoculture biofilm formation (OD570/OD600) [2, 13]: significant inhibitory effects; inhibitory effect on biofilm formation, with ciprofloxacin [2, 14]: significant inhibitory effects; inhibition of monoculture biofilm formation (OD570/OD600) [3, 13]: significant inhibitory effects; inhibitory effect on biofilm formation, with ciprofloxacin [3, 14]: significant inhibitory effects; % cells with uncompromised membrane [4]: 80.4%; % cells with uncompromised membrane [5]: 78.6%; Bacterial colony forming ability (Δ log CFU mL^−1) [6]: 2.3 Δ log CFU mL^−1; Bacterial colony forming ability (Δ log CFU mL^−1) ([6]; listed as Catechol): ≥ 1.5 Δ log CFU mL^−1; MIC [7]: 2500 mg/L (≈ 22.7 mM); MIC [8]: 2500 mg/L (≈ 22.7 mM); MIC [9]: 1250 mg/L (≈ 11.4 mM); MIC [10]: 1250 mg/L (≈ 11.4 mM); Minimum permeabilization concentration [11]: 0.5 mg/mL; Minimum permeabilization concentration [12]: 0.5 mg/mL
